Test results reported in article PMC9072250 (Acta Pharmaceutica Sinica. B, 2021).
Where a name gives a salt, the structure may show the parent alone.

Legend:
[1] = system: monocrotaline-induced PAH rat model; assay: Monocrotaline-induced PAH rat model; assay type: in vivo, Wister rats; conditions: PAH rats, 10.0 mg/kg (po) daily for 3 weeks, positive control
[2] = system: PDE6A; conditions: PDE6A versus PDE5A1; cited from earlier work

SMILES: CCCc1nn(C)c2c(=O)[nH]c(-c3cc(S(=O)(=O)N4CCN(C)CC4)ccc3OCC)nc12 [sildenafil citrate]
- mean pulmonary artery pressure (mPAP) [1]: decreased significantly
- right ventricle hypertrophy index (RVHI%) [1]: decreased significantly
- wall thickness percentage (WT%) [1]: decreased significantly

SMILES: CCCc1nn(C)c2c(=O)[nH]c(-c3cc(S(=O)(=O)N4CCN(C)CC4)ccc3OCC)nc12 [sildenafil]
- IC50 potency against PDE6A relative to PDE5A1 [2]: 5 fold
